Drawing on PMC11237694, “Novel pentafluorosulfanyl-containing triclocarban analogs selectively kill Gram-positive bacteria” (Microbiology Spectrum, 2024), this text covers MBC and MIC for 14 compounds.

Assay in all cases: Planktonic susceptibility (MIC/MBC), 96-well broth microdilution
(In broth dilution the organism is exposed to a series of concentrations in liquid medium.)

Assay [1] has as its system Klebsiella pneumoniae ATCC. The assay is classed as cell-based. The conditions noted are these: K. pneumonia; for MIC: planktonic, overnight 37°C in MHB. The procedure:
(§1) All bacterial strains subjected to testing had been stored at −70°C prior to the experiment. The experiment commenced by streaking small amounts of the frozen bacterial samples onto Muller-Hinton agar (MHA) culture medium (BD Bacto, Oxoid, Basingstoke, UK Cat# X296B) and allowing for overnight incubation. Bacteria were re-cultured on MHA plates as required to confirm colony morphology and lack of contamination. Strains tested were P. aeruginosa ATCC 27853, E. coli ATCC 25922, Staphylococcus aureus ATCC 25923, MRSA ATCC 33591, S. epidermidis ATCC 12228, Klebsiella pneumoniae ATCC, P. mirabilis ATCC 35659, and 10 clinical isolates of MRSA from Foothills Hospital, Calgary, Canada. To prepare for susceptibility testing, a protocol modified from Lemire et al was used ([28]). MHB was swab-inoculated from MHA colonies and shake-incubated until turbid. Dilution of the broth with 0.9% saline was performed as necessary to match a 1.0 McFarland standard.
(§2) MIC and MBC assessments were conducted on all bacterial strains using 96-well microtiter plates. To prepare the wells for bacteria, serial dilutions of the antibacterial agents were carried out along the rows of two microtiter plates. The antibacterials were 2-fold diluted with Mueller-Hinton broth (MHB) in each column, reaching a volume of 75 µL. The 1.0 McFarland standard was diluted 15-fold in MHB, and 75 µL of inoculum was added to the wells treated with antibacterials, resulting in a total volume of 150 µL. The microtiter plates were covered and then shake-incubated overnight at 150 rpm and 37°C. MIC was determined based on visible bacterial growth. In cases of antibacterial opacity or ambiguous results, streaking of well cultures on MHA, overnight incubation, and subsequent comparison with controls were performed. MBC was determined by transferring 3 µL of culture from all MIC microtiter plate wells to 147 µL of Mueller-Hinton broth in fresh plates. These plates were shake-incubated overnight at 150 rpm and 37°C, and bacterial growth was visually inspected.

The next assay deals with P. mirabilis ATCC 35659. In kind it is cell-based. The conditions noted are these: Proteus mirabilis; for MBC: ATCC35659; for MIC: ATCC35659, planktonic, overnight 37°C in MHB. As to the method:
as §1, §2

Assay [2] has as its system Staphylococcus aureus ATCC 25923. In kind it is cell-based. To be noted: Staphylococcus aureus, ATCC25923, S. aureus; for MIC: planktonic, overnight 37°C in MHB. The procedure:
as §1, §2

The next assay relates to MRSA ATCC 33591. In kind it is cell-based, methicillin-resistant S. aureus. The conditions noted are these: Staphylococcus aureus, MRSA reference strain; for MIC: planktonic, overnight 37°C in MHB. As to the method: as §1
as §2, with “In cases of antibacterial opacity or ambiguous results, streaking of well cultures on MHA, overnight incubation, and subsequent comparison with controls were performed.” left out

In brackets after ≈: the same amount, converted by molar mass. Bounds are passed on as bounds.

In the case of `O=C(Nc1ccc(Cl)c(C(F)(F)F)c1)Nc1ccc2nnsc2c1` [A], in assay [1], the MBC was > 5 mM and the MIC was > 5 mM. Besides, in the assay with P. mirabilis ATCC 35659, the MBC is > 5 mM and the MIC is > 5 mM.
Take `O=C(Nc1ccc(Cl)c(Cl)c1)Nc1ccc2nnsc2c1` [B]: the MBC (in assay [1]; in the assay with P. mirabilis ATCC 35659) was > 5 mM in each case. Also, the MIC is > 5 mM in assay [1], > 5 mM with P. mirabilis ATCC 35659, 9.8 mM (≈ 3320 µg/mL) in assay [2] and 4.9 mM (≈ 1660 µg/mL) with MRSA ATCC 33591.
Regarding `O=C(Nc1ccc2nnsc2c1)Nc1cccc(S(F)(F)(F)(F)F)c1Cl` [EBP-24, 3-(1,2,3-benzothiadiazol-6-yl)-1-(2-chloro-3-pentafluoro-λ^6-sulfanyl)urea], the MBC in assay [1] was > 5 mM; with P. mirabilis ATCC 35659, > 5 mM; in assay [2] it was 78 mM (≈ 33600 µg/mL). Besides, the MIC is > 5 mM in assay [1], > 5 mM in the assay with P. mirabilis ATCC 35659, 0.076 mM (≈ 32.7 µg/mL) in assay [2] and 0.15 mM (≈ 64.6 µg/mL) with MRSA ATCC 33591.
For `O=C(Nc1ccc(Cl)c(S(F)(F)(F)(F)F)c1)Nc1ccc2nnsc2c1` [EBP-25, 3-(1,2,3-benzothiadiazol-6-yl)-1-(4-chloro-3-pentafluoro-λ^6-sulfanyl)urea], the figures for the MBC (in assay [1]; against P. mirabilis ATCC 35659; in assay [2]) were > 5 mM, > 5 mM and 78 mM (≈ 33600 µg/mL), respectively. In addition, the MIC in assay [1] was > 5 mM; against P. mirabilis ATCC 35659, > 5 mM; in assay [2] it was 9.8 mM (≈ 4220 µg/mL).
`O=C(Nc1ccc(S(F)(F)(F)(F)F)cc1)Nc1ccc(S(F)(F)(F)(F)F)cc1` [EBP-33, 1,3-bis(4-pentafluoro-λ^6-sulfanyl)urea]: the MBC in assay [1] was > 5 mM; in the assay with P. mirabilis ATCC 35659, > 5 mM; in assay [2] it was 20 mM (≈ 9290 µg/mL); with MRSA ATCC 33591 it was 2.4 mM (≈ 1110 µg/mL). Further, the MIC in assay [1] is > 5 mM; against P. mirabilis ATCC 35659, > 5 mM; in assay [2], 0.019 mM (≈ 8.82 µg/mL); against MRSA ATCC 33591 it was 0.0048 mM (≈ 2.23 µg/mL).
Consider `O=C(Nc1cc(S(F)(F)(F)(F)F)ccc1Cl)Nc1cc(S(F)(F)(F)(F)F)ccc1Cl` [EBP-36, 1,3-bis(2-chloro-5-pentafluoro-λ^6-sulfanyl)urea], for which the MBC was > 5 mM in assay [1], > 5 mM with P. mirabilis ATCC 35659, 78 mM (≈ 41600 µg/mL) in assay [2] and 9.8 mM (≈ 5230 µg/mL) in the assay with MRSA ATCC 33591. In addition, the MIC in assay [1] was > 5 mM; against P. mirabilis ATCC 35659, > 5 mM; in assay [2], 0.076 mM (≈ 40.5 µg/mL); against MRSA ATCC 33591, 0.61 mM (≈ 325 µg/mL).
As for `O=C(Nc1ccc(Cl)cc1)Nc1ccc(Cl)c(S(F)(F)(F)(F)F)c1` [EBP-41, 1-(4-chloro-3-(pentafluoro-λ^6-sulfanyl)phenyl)-3-(4-chlorophenyl)urea], the MBC is > 5 mM in assay [1], > 5 mM in the assay with P. mirabilis ATCC 35659, 1.2 mM (≈ 489 µg/mL) in assay [2] and 1.2 mM (≈ 489 µg/mL) against MRSA ATCC 33591. Moreover, the MIC in assay [1] was > 5 mM; against P. mirabilis ATCC 35659, > 5 mM; in assay [2] it was 0.038 mM (≈ 15.5 µg/mL); in the assay on MRSA ATCC 33591, 0.0095 mM (≈ 3.87 µg/mL).
Turning to `O=C(Nc1cccc(S(F)(F)(F)(F)F)c1)Nc1cccc(S(F)(F)(F)(F)F)c1` [EBP-53, 1,3-bis(3-(Pentafluoro-λ^6-sulfanyl)phenyl) urea], the MBC (in assay [1]; against P. mirabilis ATCC 35659) was > 5 mM in each case. In addition, the MIC in assay [1] was > 5 mM; in the assay with P. mirabilis ATCC 35659 it was > 5 mM; in assay [2], 1.2 mM (≈ 557 µg/mL); against MRSA ATCC 33591 it was 1.2 mM (≈ 557 µg/mL).
`O=C(Nc1ccc(S(F)(F)(F)(F)F)cc1)Nc1cccc(S(F)(F)(F)(F)F)c1` [EBP-55, 1-(3-(pentafluoro-λ^6-sulfanyl)phenyl)-3-(4-(pentafluoro-λ^6-sulfanyl)phenyl)urea]: the MBC in assay [1] was > 5 mM; against P. mirabilis ATCC 35659 it was > 5 mM; in assay [2] it was 78 mM (≈ 36200 µg/mL); against MRSA ATCC 33591, 0.15 mM (≈ 69.7 µg/mL). In addition, the MIC in assay [1] is > 5 mM; in the assay with P. mirabilis ATCC 35659, > 5 mM; in assay [2] it was 0.019 mM (≈ 8.82 µg/mL); against MRSA ATCC 33591, 0.0048 mM (≈ 2.23 µg/mL).
In the case of `O=C(Nc1ccc(Cl)c(S(F)(F)(F)(F)F)c1)Nc1ccc(Cl)c(S(F)(F)(F)(F)F)c1` [EBP-56, 1,3-bis(4-Chloro-3-(pentafluoro-λ^6-sulfanyl)phenyl) urea], the MBC is > 5 mM in assay [1], > 5 mM against P. mirabilis ATCC 35659, 78 mM (≈ 41600 µg/mL) in assay [2] and 0.61 mM (≈ 325 µg/mL) against MRSA ATCC 33591. The MIC in assay [1] is > 5 mM; in the assay on P. mirabilis ATCC 35659, > 5 mM; in assay [2], 4.9 mM (≈ 2610 µg/mL); against MRSA ATCC 33591, 0.3 mM (≈ 160 µg/mL).
Turning to `O=C(Nc1ccc(Cl)cc1)Nc1cccc(S(F)(F)(F)(F)F)c1Cl` [EBP-58, 1-(2-Chloro-3-(pentafluoro-λ^6-sulfanyl)phenyl)-3-(4-chlorophenyl)urea], the MBC (in assay [1]; against P. mirabilis ATCC 35659) was > 5 mM in each case. Also, the MIC in assay [1] was > 5 mM; in the assay with P. mirabilis ATCC 35659, > 5 mM; with MRSA ATCC 33591, 20 mM (≈ 8140 µg/mL).
Turning to `O=C(Nc1ccc(S(F)(F)(F)(F)F)cc1)Nc1ccc2nnsc2c1` [EPB-21, 3-(1,2,3-benzothiadiazol-6-yl)-1-(4-pentafluoro-λ^6-sulfanyl)urea], in assay [1], the minimal bactericidal concentration (MBC) was > 5 mM and the MIC is > 5 mM. Also, in the assay with P. mirabilis ATCC 35659, the MBC was > 5 mM and the MIC was > 5 mM.
In the case of `O=C(Nc1cccc(S(F)(F)(F)(F)F)c1)Nc1ccc2nnsc2c1` [EPB-22, 3-(1,2,3-benzothiadiazol-6-yl)-1-(3-pentafluoro-λ^6-sulfanyl)urea], the MBC is > 5 mM in assay [1], > 5 mM in the assay with P. mirabilis ATCC 35659, 20 mM (≈ 7930 µg/mL) in assay [2] and 4.9 mM (≈ 1940 µg/mL) with MRSA ATCC 33591. In addition, the MIC is > 5 mM in assay [1], > 5 mM with P. mirabilis ATCC 35659, 0.61 mM (≈ 242 µg/mL) in assay [2] and 0.61 mM (≈ 242 µg/mL) in the assay with MRSA ATCC 33591.
Take `O=C(Nc1ccc2nnsc2c1)Nc1cc(S(F)(F)(F)(F)F)ccc1Cl` [EPB-23, 3-(1,2,3-benzothiadiazol-6-yl)-1-(2-chloro-5-pentafluoro-λ^6-sulfanyl)urea]: the MBC was > 5 mM in assay [1], > 5 mM with P. mirabilis ATCC 35659, 20 mM (≈ 8620 µg/mL) in assay [2] and 39 mM (≈ 16800 µg/mL) in the assay on MRSA ATCC 33591. In addition, the MIC was > 5 mM in assay [1], > 5 mM in the assay with P. mirabilis ATCC 35659, 2.4 mM (≈ 1030 µg/mL) in assay [2] and 4.9 mM (≈ 2110 µg/mL) with MRSA ATCC 33591.

By MBC is commonly meant the lowest tested concentration that kills the bacteria rather than only halting them. Lower therefore signals greater bactericidal potency. In general, MIC refers to the smallest concentration in the dilution series that meets the test's criterion for growth inhibition. Read a low MIC as inhibition by little substance.
